For assay [1], the target named is Histone deacetylase (HDAC1 and HDAC2) (Homo sapiens, UniProt Q13547+Q92769). The assay can be described thus: Inhibition of HDAC1/HDAC2 in human HeLa cell nuclear extract using Boc-Lys(Ac)-AMC as substrate and measured by fluorometric method. It counts as cell-based.
For assay [2], the target named is Histone deacetylase 1 (Homo sapiens, UniProt Q13547). Put plainly: Inhibition of HDAC1 in human HeLa cell nuclear extract using Boc-Lys(Ac)-AMC or Boc-Lys(triflouroacetyl)-AMC as substrate incubated for 30 mins and measured by fluorescence assay. It counts as cell-free.
Sequence of Histone deacetylase 1 (Q13547 whole entry): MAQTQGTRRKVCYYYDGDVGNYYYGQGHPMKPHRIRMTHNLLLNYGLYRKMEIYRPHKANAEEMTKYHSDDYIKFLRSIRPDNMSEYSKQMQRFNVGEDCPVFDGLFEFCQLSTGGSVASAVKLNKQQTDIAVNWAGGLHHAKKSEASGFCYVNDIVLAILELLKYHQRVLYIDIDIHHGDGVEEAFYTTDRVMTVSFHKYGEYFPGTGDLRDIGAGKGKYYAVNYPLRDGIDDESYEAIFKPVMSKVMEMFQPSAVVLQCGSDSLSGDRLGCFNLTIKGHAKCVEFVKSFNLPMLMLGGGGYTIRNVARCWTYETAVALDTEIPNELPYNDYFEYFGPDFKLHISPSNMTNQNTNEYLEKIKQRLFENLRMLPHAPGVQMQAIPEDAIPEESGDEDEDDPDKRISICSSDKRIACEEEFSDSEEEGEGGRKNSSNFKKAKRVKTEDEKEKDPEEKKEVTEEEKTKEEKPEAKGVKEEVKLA
For assay [3], the target named is T1, Protein deacetylase HDAC6 (Homo sapiens, UniProt Q9UBN7).
T1 sequence (Q9UBN7 whole entry): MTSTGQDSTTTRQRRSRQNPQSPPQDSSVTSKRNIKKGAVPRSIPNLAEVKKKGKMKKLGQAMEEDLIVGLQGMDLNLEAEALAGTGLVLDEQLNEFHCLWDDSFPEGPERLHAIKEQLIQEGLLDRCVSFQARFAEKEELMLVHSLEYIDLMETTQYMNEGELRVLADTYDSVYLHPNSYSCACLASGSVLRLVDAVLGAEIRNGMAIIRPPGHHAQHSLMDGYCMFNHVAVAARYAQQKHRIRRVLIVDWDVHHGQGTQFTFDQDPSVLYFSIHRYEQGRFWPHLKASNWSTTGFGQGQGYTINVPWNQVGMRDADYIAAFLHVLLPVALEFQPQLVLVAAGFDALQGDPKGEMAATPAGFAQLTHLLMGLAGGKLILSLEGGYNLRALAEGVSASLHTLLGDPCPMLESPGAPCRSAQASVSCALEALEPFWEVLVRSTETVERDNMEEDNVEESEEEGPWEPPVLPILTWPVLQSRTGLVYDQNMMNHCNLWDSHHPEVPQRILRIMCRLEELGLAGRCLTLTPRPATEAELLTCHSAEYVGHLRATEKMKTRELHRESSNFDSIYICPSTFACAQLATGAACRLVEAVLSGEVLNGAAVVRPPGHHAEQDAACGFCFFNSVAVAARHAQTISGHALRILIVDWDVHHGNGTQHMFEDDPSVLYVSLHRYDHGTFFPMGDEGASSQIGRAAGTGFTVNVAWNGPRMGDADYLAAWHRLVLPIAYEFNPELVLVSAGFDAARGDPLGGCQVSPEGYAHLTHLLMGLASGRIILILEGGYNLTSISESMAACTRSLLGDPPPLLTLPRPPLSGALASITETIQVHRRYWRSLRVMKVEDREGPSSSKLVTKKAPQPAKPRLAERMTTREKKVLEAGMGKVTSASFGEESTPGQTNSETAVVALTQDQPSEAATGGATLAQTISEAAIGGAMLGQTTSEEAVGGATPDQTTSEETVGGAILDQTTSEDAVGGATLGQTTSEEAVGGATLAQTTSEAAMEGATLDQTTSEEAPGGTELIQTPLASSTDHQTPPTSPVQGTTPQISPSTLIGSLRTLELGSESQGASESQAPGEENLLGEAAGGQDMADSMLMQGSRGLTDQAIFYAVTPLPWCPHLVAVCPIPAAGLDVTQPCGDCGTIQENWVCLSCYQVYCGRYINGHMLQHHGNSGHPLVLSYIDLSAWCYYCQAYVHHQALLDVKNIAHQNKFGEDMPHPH
The assay can be described thus: Inhibition of HDAC6 in human HeLa cell nuclear extract using Boc-Lys(Ac)-AMC or Boc-Lys(triflouroacetyl)-AMC as substrate incubated for 30 mins and measured by fluorescence assay. In kind it is cell-free.

Assay [4] concerns the target T2, Histone deacetylase 8 (Homo sapiens, UniProt Q9BY41).
T2 sequence (Q9BY41 whole entry): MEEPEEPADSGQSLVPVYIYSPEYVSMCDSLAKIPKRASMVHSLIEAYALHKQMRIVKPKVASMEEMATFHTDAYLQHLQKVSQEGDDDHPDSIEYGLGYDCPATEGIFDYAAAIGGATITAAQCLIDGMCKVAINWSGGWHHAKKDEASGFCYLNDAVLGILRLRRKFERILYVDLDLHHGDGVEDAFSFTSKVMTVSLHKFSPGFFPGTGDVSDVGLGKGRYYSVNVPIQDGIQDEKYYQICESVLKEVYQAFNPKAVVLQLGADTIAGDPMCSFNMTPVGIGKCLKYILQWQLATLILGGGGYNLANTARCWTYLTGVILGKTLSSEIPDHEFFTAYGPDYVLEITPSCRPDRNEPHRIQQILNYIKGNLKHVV
The assay can be described thus: Inhibition of HDAC8 in human HeLa cell nuclear extract using Boc-Lys(Ac)-AMC or Boc-Lys(triflouroacetyl)-AMC as substrate incubated for 30 mins and measured by fluorescence assay. It counts as cell-free.

In assay [5] the test system is HCT-116. The assay can be described thus: Antiproliferative activity against human HCT-116 cells after 48 hrs by CCK-8 assay. In kind it is functional, cell-based. The note with it: HCT-116, 48 h.
Assay [6] concerns HeLa. Put plainly: Antiproliferative activity against human HeLa cells after 48 hrs by CCK-8 assay. It counts as functional, cell-based. For orientation: Formazan colour is commonly taken as a measure of viable cells.
Assay [7] relates to HepG2. The assay can be described thus: Antiproliferative activity against human HepG2 cells after 48 hrs by CCK-8 assay. It counts as functional, cell-based. As to conditions: HepG2, 48 h.
The test system of assay [8] is MC-38. The assay can be described thus: Antiproliferative activity against mouse MC38 cells after 48 hrs by CCK-8 assay. In kind it is functional, cell-based. As to conditions: MC-38, 48 h.
The subject of assay [9] is K562. Put plainly: Antiproliferative activity against human K562 cells after 48 hrs by CCK-8 assay. It counts as functional, cell-based. The note with it: K562, 48 h.
For assay [10], the system named is HEL. Put plainly: Antiproliferative activity against human HEL cells after 48 hrs by CCK-8 assay. It counts as functional, cell-based.
Assay [11] has as its system MOLT-4. The assay can be described thus: Antiproliferative activity against human MOLT-4 cells after 48 hrs by CCK-8 assay. It counts as functional, cell-based. The note with it: MOLT-4, 48 h.
For assay [12], the system named is Calf thymus DNA. Put plainly: Binding affinity to calf thymus DNA at 50 uM incubated for 30 mins and measured by UV-vis absorption spectroscopy. The note with it: Bos taurus. In kind it is nucleic-acid assay.
Assay [13] concerns Calf thymus DNA. Put plainly: Binding affinity to calf thymus DNA at 50 uM incubated for 30 mins and measured by fluorescence spectroscopy. As to conditions: Bos taurus. In kind it is nucleic-acid assay.
Assay [14] has as its system HCT-116. The assay can be described thus: Induction of apoptosis in human HCT-116 cells assessed as early apoptotic cells at 1.5 uM incubated for 48 hrs by PI and annexin V-FITC staining based flow cytometry (reference value: 3.4%). In kind it is functional.
Assay [15] concerns HCT-116. The assay can be described thus: Induction of apoptosis in human HCT-116 cells assessed as late apoptotic cells at 1.5 uM incubated for 48 hrs by PI and annexin V-FITC staining based flow cytometry (reference value: 3.4%). In kind it is functional.

Active and inactive are the calls of the source. The rule behind the calls is not given here.

The values that follow come from ChEMBL document CHEMBL5108012, “Discovery of 2,5-diphenyl-1,3,4-thiadiazole derivatives as HDAC inhibitors with DNA binding affinity” (Eur J Med Chem, 2022).

Broadly, the IC50 is the concentration that gives 50% inhibition. A low value points to greater potency. For `COc1cc(-c2nnc(-c3ccc(OCCCCCCCC(=O)NO)cc3)s2)cc(OC)c1OC`, the IC50 in assay [1] is on record as greater than 1000 nM.
`COc1cc(-c2nnc(-c3cccc(OCCCCCCCC(=O)NO)c3)s2)cc(OC)c1OC` gave an IC50 in [1] of 395 nM.
The same measure, in the same setting: the value for `O=C(CCCCCOc1cccc(-c2nnc(-c3ccccc3Cl)s2)c1)NO` was 339 nM.
`O=C(CCCCCCOc1cccc(-c2nnc(-c3ccccc3)s2)c1)NO`: the IC50 is 57 nM in [1]; 19 nM in assay [2]; 185 nM in [3]; 2390 nM in assay [4]; 2900 nM in assay [5]; 4900 nM in assay [6]. Moreover, the IC50 in assay [7] turned out to be 2200 nM; in [8], 2400 nM; in assay [9], 3200 nM; in assay [10], 2600 nM; in [11] it was 710 nM.
On to `O=C(COc1cccc(-c2nnc(-c3ccccc3Cl)s2)c1)NO`, for which, in assay [1], the IC50 is greater than 1000 nM.
In turn, `O=C(CCCCCCCOc1cccc(-c2nnc(-c3ccccc3Cl)s2)c1)NO` had an IC50 in [1] of 461 nM.
For `O=C(CCCOc1cccc(-c2nnc(-c3ccccc3Cl)s2)c1)NO`, the IC50 in assay [1] is greater than 1000 nM.
The same measure, in the same setting: in the case of `O=C(CCCCOc1ccc(-c2nnc(-c3ccccc3)s2)cc1)NO` it was 362 nM.
In the case of `O=C(CCCCCCCOc1ccc(-c2nnc(-c3ccccc3Cl)s2)cc1)NO`, the IC50 in [1] was greater than 1000 nM.
With `COc1cc(-c2nnc(-c3ccc(OCCCCC(=O)NO)cc3)s2)cc(OC)c1OC`, in assay [1], the IC50 was greater than 1000 nM.
`COc1cc(-c2nnc(-c3cccc(OCC(=O)NO)c3)s2)cc(OC)c1OC`: the IC50 in [1] is on record as greater than 1000 nM.
`O=C(COc1ccc(-c2nnc(-c3ccccc3)s2)cc1)NO` displayed an IC50 in assay [1] greater than 1000 nM.
With `O=C(CCCOc1ccc(-c2nnc(-c3ccccc3Cl)s2)cc1)NO`, the IC50 in assay [1] is listed as greater than 1000 nM.
With `O=C(CCCCCCCOc1ccc(-c2nnc(-c3ccccc3)s2)cc1)NO`, the IC50 in assay [1] was greater than 1000 nM.
The same measure, in the same setting: in the case of `COc1cc(-c2nnc(-c3cccc(OCCCCC(=O)NO)c3)s2)cc(OC)c1OC` it was greater than 1000 nM; in that of `O=C(CCCCCOc1ccc(-c2nnc(-c3ccccc3Cl)s2)cc1)NO`, greater than 1000 nM.
The compound `COc1cc(-c2nnc(-c3ccc(OCCCC(=O)NO)cc3)s2)cc(OC)c1OC` registered an IC50 in [1] greater than 1000 nM.
Take `COc1cc(-c2nnc(-c3cccc(OCCCCCC(=O)NO)c3)s2)cc(O)c1OC`: the IC50 in assay [1] is on record as greater than 1000 nM.
As for `CN1CCN(c2ccc3[nH]c(-c4ccc5[nH]c(-c6ccc(O)cc6)nc5c4)nc3c2)CC1`, the result in assay [12] and in assay [13] was Active.
Consider `O=C(CCCCCCOc1ccc(-c2nnc(-c3ccccc3)s2)cc1)NO`, for which the IC50 in [1] was 199 nM; in [2], 82 nM; in [3], 64 nM; in assay [4], greater than 10000 nM; in [5] it was 20000 nM; in [6], greater than 50000 nM. The IC50 in assay [7] was greater than 50000 nM; in [8] it was 14000 nM; in assay [9], 16000 nM; in assay [10], greater than 10000 nM; in assay [11], 3100 nM.
`O=C(CCCCCCC(=O)Nc1ccccc1)NO` [VORINOSTAT]: the Activity in assay [14] and in assay [15] was 5.05% in each case.
In [1], `O=C(CCCCCCOc1ccc(-c2nnc(-c3ccccc3Cl)s2)cc1)NO` showed an IC50 greater than 1000 nM.
Take `O=C(CCCCOc1ccc(-c2nnc(-c3ccccc3Cl)s2)cc1)NO`: the IC50 in assay [1] was greater than 1000 nM.
`O=C(CCCCCOc1ccc(-c2nnc(-c3ccccc3)s2)cc1)NO`: the IC50 in [1] is greater than 1000 nM.
Same read-out and setting: the value for `O=C(COc1ccc(-c2nnc(-c3ccccc3Cl)s2)cc1)NO` was greater than 1000 nM; that for `COc1cc(-c2nnc(-c3ccc(OCC(=O)NO)cc3)s2)cc(OC)c1OC` was greater than 1000 nM.
Take `COc1cc(-c2nnc(-c3cccc(OCCCC(=O)NO)c3)s2)cc(OC)c1OC`: in assay [1], the IC50 was greater than 1000 nM.
Compound `O=C(CCCCCCCOc1cccc(-c2nnc(-c3ccccc3)s2)c1)NO` came in with an IC50 in assay [1] of 538 nM.
The same measure, in the same setting: the value for `COc1cc(-c2nnc(-c3ccc(OCCCCCCC(=O)NO)cc3)s2)cc(OC)c1OC` was 537 nM; that for `COc1cc(-c2nnc(-c3ccc(OCCCCCC(=O)NO)cc3)s2)cc(OC)c1OC` was greater than 1000 nM.
With `COc1cc(-c2nnc(-c3cccc(OCCCCCCC(=O)NO)c3)s2)cc(OC)c1OC`, the IC50 in assay [1] is reported as 366 nM.
On to `O=C(CCCCOc1cccc(-c2nnc(-c3ccccc3)s2)c1)NO`, for which the IC50 stood at 118 nM in assay [1]; 179 nM in [2]; 32 nM in assay [3]; 3110 nM in assay [4]; 2000 nM in assay [5]; 1900 nM in assay [6]. Further, the IC50 was 11000 nM in [7]; 7100 nM in assay [8]; 2100 nM in [9]; 570 nM in assay [10]; 490 nM in assay [11].
Turning to `O=C(CCCCCCOc1cccc(-c2nnc(-c3ccccc3Cl)s2)c1)NO`, the IC50 in assay [1] was determined as 168 nM; in assay [2] it was 168 nM; in [3], 30 nM; in [4], 1520 nM; in assay [5], 10000 nM; in [6] it was 17000 nM. Also, the IC50 worked out at 21000 nM in assay [7]; 16000 nM in assay [8]; 7700 nM in [9]; 8100 nM in assay [10]; 2400 nM in assay [11].
In turn, `O=C(CCCOc1cccc(-c2nnc(-c3ccccc3)s2)c1)NO` displayed an IC50 in assay [1] greater than 1000 nM.
In [1], `O=C(COc1cccc(-c2nnc(-c3ccccc3)s2)c1)NO` had an IC50 greater than 1000 nM.
Consider `O=C(CCCCOc1cccc(-c2nnc(-c3ccccc3Cl)s2)c1)NO`, for which the IC50 in assay [1] is 656 nM.
For `O=C(CCCOc1ccc(-c2nnc(-c3ccccc3)s2)cc1)NO`, the IC50 in [1] is greater than 1000 nM.
